Tests used:
Assay in all cases: Receptor panel, Study 1
Type in all cases: binding
[1] = target: A1 (h) (Homo sapiens, UniProt P30542)
Procedure: (§1) RESULTS AND DISCUSSION—Selectivity—The compound of Formula (III) was evaluated in three selectivity panels to assess the potential for off-target pharmacology (Table 8). […] The kinase off-target profile of The compound of Formula (III) was assessed in a full human wild-type panel using radiometric kinase activity assays (KinaseProfiler™ and IC50Profiler™; Eurofins Scientific) (Table 9; FIG. 23). The compound of Formula (III) inhibited 4/278 kinases >50% at 1 micromolar, identifying BTK and the three other kinases having analogous Cys residues with the potential for covalent inhibition (BMX, TEC, BLK). […]. The cellular kinase selectivity of The compound of Formula (III) was established in native Ramos B cell kinome assays (KiNativ™; ActivX) confirmed BTK as the primary target with inhibition of BLK and TEC inhibition detected (Table 10).

[2] = target: CCKA (h) (CCK1) (Homo sapiens, UniProt P32238)
CCKA (h) (CCK1), sequence (P32238 whole entry): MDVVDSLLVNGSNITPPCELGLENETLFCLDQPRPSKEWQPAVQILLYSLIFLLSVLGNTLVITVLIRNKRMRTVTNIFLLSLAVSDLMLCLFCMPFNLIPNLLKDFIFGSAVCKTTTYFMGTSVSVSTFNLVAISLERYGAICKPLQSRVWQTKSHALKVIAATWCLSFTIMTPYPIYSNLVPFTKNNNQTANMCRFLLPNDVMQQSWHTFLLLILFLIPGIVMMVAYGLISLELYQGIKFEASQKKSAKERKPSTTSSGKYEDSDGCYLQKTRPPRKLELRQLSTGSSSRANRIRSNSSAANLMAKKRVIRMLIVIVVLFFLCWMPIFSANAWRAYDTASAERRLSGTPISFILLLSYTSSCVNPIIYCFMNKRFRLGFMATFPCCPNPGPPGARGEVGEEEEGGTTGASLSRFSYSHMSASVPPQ
Procedure: as §1

[3] = system: Cl^− channel
Procedure: as §1

[4] = system: SK^+Ca channel
Procedure: as §1

[5] = target: D2S (h) (Homo sapiens, UniProt P14416)
D2S (h), sequence (P14416 1-414 isoform P14416-2): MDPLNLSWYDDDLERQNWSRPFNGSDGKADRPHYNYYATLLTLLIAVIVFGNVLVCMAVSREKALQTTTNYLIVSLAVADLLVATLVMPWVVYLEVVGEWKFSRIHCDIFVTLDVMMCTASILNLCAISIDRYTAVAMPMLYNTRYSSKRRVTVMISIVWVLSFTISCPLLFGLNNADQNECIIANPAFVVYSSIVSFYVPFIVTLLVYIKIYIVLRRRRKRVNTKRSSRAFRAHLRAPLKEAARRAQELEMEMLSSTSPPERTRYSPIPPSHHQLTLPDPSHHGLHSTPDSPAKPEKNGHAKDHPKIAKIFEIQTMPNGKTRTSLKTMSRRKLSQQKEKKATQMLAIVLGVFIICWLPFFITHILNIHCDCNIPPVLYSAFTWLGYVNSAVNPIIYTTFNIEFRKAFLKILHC
Procedure: as §1

[6] = target: 5-HT7 (h) (Homo sapiens, UniProt P34969)
Procedure: as §1

[7] = target: 5-HT1A (h) (Homo sapiens, UniProt P08908)
Procedure: as §1

[8] = target: Y2 (h) (Homo sapiens, UniProt P49146)
Procedure: as §1

[9] = system: GABA
Procedure: as §1

[10] = target: CCR1 (h) (Homo sapiens, UniProt P32246)
Procedure: as §1

[11] = system: sst (non-selective)
Procedure: as §1

[12] = target: ORL1 (h) (NOP) (Homo sapiens, UniProt P41146)
Procedure: as §1

[13] = target: NT1 (h) (NTS1) (Homo sapiens, UniProt P30989)
NT1 (h) (NTS1), sequence (P30989 whole entry): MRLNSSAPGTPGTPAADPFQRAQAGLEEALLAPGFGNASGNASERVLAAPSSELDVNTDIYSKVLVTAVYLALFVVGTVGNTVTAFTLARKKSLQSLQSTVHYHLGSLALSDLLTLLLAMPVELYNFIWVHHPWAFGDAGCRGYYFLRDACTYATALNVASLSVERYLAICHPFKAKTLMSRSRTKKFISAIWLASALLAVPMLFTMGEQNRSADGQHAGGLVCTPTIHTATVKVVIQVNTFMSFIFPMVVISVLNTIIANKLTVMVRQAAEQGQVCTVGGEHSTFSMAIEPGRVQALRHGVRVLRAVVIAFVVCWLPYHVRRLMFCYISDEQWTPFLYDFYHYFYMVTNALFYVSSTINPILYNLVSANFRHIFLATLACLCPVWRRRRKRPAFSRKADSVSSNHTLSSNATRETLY
Procedure: as §1

[14] = target: 5-HT5A (h) (Homo sapiens, UniProt P47898)
Procedure: as §1

[15] = system: Na^+ channel (site 2)
Procedure: as §1

[16] = target: delta 2(h) (DOP) (Homo sapiens, UniProt P41143)
delta 2(h) (DOP), sequence (P41143 whole entry): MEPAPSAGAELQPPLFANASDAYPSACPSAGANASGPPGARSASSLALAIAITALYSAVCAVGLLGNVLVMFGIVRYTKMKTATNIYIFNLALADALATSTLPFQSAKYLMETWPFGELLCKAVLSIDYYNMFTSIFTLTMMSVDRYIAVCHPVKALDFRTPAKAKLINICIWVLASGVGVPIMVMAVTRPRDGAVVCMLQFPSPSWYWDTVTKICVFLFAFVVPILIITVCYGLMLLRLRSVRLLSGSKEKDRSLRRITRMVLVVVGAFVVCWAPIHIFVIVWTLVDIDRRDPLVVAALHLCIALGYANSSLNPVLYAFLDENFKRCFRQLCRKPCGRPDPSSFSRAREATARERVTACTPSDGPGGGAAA
Procedure: as §1

[17] = target: A2A (h) (Homo sapiens, UniProt P29274)
Procedure: as §1

[18] = system: Ca^2+ channel
Procedure: as §1

[19] = target: B2 (h) (Homo sapiens, UniProt P30411)
B2 (h), sequence (P30411 whole entry): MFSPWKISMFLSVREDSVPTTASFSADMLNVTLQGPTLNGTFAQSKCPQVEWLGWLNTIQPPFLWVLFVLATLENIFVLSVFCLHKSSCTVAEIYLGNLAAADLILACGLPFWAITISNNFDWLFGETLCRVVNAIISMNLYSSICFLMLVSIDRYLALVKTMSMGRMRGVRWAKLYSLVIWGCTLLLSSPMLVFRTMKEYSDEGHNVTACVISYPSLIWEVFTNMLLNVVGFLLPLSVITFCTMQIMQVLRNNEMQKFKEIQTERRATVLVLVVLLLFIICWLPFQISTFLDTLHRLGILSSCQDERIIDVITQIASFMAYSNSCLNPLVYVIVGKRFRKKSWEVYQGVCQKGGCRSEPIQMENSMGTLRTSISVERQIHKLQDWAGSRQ
Procedure: as §1

[20] = system: BZD (central)
Procedure: as §1

[21] = target: D1 (h) (Homo sapiens, UniProt P21728)
Procedure: as §1

[22] = target: M2 (h) (Homo sapiens, UniProt P08172)
Procedure: as §1

[23] = target: Vla(h) (Homo sapiens, UniProt P37288)
Procedure: as §1

[24] = system: K^+V channel
Procedure: as §1

[25] = target: ETA (h) (Homo sapiens, UniProt P25101)
Procedure: as §1

[26] = target: NK3 (h) (Homo sapiens, UniProt P29371)
Procedure: as §1

[27] = target: A3 (h) (Homo sapiens, UniProt P0DMS8)
Procedure: as §1

[28] = target: 5-HT6 (h) (Homo sapiens, UniProt P50406)
5-HT6 (h), sequence (P50406 whole entry): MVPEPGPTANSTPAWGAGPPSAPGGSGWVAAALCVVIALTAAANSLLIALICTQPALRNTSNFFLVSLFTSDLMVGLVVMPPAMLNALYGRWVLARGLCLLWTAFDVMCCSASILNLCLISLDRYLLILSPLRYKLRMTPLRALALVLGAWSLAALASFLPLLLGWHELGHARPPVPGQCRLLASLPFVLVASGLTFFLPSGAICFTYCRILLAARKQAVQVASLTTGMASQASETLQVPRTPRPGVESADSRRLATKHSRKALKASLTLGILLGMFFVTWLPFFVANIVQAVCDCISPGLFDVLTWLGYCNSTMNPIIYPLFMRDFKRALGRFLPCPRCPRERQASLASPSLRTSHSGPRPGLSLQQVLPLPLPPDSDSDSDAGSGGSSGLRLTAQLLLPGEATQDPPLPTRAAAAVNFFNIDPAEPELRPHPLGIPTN
Procedure: as §1

[29] = target: MC4 (h) (Homo sapiens, UniProt P32245)
Procedure: as §1

[30] = target: 5-HT2A (h) (Homo sapiens, UniProt P28223)
5-HT2A (h), sequence (P28223 whole entry): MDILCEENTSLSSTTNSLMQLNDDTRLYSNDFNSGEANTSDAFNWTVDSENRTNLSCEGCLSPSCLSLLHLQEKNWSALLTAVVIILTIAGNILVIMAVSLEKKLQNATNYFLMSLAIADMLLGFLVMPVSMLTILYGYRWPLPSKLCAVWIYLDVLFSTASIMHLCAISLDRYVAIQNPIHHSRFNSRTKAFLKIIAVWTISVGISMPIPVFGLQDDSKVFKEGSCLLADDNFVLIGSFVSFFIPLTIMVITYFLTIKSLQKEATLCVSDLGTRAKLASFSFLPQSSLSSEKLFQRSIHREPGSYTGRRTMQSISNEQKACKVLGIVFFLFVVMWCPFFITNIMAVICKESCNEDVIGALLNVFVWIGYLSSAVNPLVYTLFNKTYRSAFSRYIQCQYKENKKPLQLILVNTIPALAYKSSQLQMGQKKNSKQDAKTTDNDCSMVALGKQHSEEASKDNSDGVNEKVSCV
Procedure: as §1

[31] = target: mu (h) (MOP) (Homo sapiens, UniProt P35372)
Procedure: as §1

[32] = target: H2 (h) (Homo sapiens, UniProt P25021)
H2 (h), sequence (P25021 whole entry): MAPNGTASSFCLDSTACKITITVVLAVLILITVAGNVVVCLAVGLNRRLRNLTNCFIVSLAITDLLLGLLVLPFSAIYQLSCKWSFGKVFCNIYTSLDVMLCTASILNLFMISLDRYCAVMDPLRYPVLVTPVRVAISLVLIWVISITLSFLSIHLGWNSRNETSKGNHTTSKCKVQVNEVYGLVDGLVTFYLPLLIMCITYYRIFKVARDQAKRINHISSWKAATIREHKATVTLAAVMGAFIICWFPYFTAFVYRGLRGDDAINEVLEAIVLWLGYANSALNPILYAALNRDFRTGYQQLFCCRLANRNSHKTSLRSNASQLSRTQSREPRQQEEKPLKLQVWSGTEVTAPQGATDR
Procedure: as §1

[33] = target: AT1 (h) (Homo sapiens, UniProt P30556)
Procedure: as §1

[34] = system: alpha 2
Procedure: as §1

[35] = target: M3 (h) (Homo sapiens, UniProt P20309)
M3 (h), sequence (P20309 whole entry): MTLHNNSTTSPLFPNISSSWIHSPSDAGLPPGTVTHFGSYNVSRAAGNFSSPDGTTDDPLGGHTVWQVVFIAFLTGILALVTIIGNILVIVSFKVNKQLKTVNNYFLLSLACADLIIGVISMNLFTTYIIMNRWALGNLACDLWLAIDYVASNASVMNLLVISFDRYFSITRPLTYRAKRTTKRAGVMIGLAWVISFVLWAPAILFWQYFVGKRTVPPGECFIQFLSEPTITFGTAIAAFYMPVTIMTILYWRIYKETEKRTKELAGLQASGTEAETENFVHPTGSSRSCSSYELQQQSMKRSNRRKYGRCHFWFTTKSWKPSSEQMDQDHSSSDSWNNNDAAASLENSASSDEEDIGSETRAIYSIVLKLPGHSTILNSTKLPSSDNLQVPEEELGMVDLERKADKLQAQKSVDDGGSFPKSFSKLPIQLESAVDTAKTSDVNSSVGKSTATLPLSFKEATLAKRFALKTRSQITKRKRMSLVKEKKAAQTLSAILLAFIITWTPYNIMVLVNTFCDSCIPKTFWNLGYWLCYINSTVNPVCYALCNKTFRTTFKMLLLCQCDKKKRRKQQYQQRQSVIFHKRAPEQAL
Procedure: as §1

[36] = target: DA transporter (h) (Homo sapiens, UniProt Q01959)
DA transporter (h), sequence (Q01959 whole entry): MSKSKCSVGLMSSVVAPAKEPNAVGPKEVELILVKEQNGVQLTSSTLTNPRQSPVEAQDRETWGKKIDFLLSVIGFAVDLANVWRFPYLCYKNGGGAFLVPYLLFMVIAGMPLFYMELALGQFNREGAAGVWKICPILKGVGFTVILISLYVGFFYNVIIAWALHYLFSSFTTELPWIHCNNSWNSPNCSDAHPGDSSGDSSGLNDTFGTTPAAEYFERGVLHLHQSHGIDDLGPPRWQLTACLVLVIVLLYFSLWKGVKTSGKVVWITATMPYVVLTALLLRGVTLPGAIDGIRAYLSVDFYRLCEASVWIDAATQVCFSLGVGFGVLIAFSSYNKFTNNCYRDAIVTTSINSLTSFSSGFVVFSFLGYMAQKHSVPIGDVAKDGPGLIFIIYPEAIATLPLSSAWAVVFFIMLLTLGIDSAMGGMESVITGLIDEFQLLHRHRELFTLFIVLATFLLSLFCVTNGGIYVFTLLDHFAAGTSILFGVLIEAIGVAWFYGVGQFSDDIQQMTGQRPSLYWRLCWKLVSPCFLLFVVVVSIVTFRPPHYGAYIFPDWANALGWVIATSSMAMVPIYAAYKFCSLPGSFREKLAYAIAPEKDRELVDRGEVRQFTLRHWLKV
Procedure: as §1

[37] = target: beta 1 (h) (Homo sapiens, UniProt P08588)
Procedure: as §1

[38] = system: kappa (KOP)
Procedure: as §1

[39] = target: M1 (h) (Homo sapiens, UniProt P11229)
Procedure: as §1

[40] = target: VIP1 (h) (VPAC1) (Homo sapiens, UniProt P32241)
Procedure: as §1

A1 (h), sequence (P30542 whole entry): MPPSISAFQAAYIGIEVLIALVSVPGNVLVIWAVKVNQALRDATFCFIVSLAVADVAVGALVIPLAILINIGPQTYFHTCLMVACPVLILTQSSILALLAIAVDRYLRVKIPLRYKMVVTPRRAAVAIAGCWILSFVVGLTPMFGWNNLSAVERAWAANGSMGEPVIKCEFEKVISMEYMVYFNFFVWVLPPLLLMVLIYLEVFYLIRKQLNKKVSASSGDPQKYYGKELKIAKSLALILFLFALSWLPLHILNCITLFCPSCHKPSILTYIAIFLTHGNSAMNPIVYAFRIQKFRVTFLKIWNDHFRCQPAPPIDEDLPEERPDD

C=CC(=O)N[C@H]1CCC[C@H]1NC(=O)c1sc2nccc3c2c1NC(=O)N3c1cnc(CC(C)C)cc1C (atropisomer, axis not shown) [compound of Formula (III), N-((1R,2S)-2-Acrylamidocyclopentyl)-5-(S)-(6-isobutyl-4-methylpyridin-3-yl)-4-oxo-4,5-dihydro-3H-1-thia-3,5,8-triazaacenaphthylene-2-carboxamide]
14.6%: inhibition at 10 µM [12]
23.7%: inhibition at 10 µM [2]
< 10%: inhibition at 10 µM [1] | inhibition at 10 µM [5] | inhibition at 10 µM [6] | inhibition at 10 µM [7] | inhibition at 10 µM [8] | inhibition at 10 µM [10] | inhibition at 10 µM [13] | inhibition at 10 µM [14] | inhibition at 10 µM [16] | inhibition at 10 µM [17] | inhibition at 10 µM [19] | inhibition at 10 µM [21] | inhibition at 10 µM [22] | inhibition at 10 µM [23] | inhibition at 10 µM [25] | inhibition at 10 µM [27] | inhibition at 10 µM [28] | inhibition at 10 µM [29] | inhibition at 10 µM [30] | inhibition at 10 µM [31] | inhibition at 10 µM [32] | inhibition at 10 µM [33] | inhibition at 10 µM [35] | inhibition at 10 µM [36] | inhibition at 10 µM [37] | inhibition at 10 µM [39] | inhibition at 10 µM [40]
12.2%: % Inhibition at 10 μM [24]
38.9%: inhibition at 10 µM [26]
25.1%: % Inhibition at 10 μM [3]
— (no inhibition observed): % Inhibition at 10 μM [4] | % Inhibition at 10 μM [9] | % Inhibition at 10 μM [11] | % Inhibition at 10 μM [15] | % Inhibition at 10 μM [18] | % Inhibition at 10 μM [20] | % Inhibition at 10 μM [34] | % Inhibition at 10 μM [38]
